Patent US10227344B2, “CK2 inhibitors, compositions and methods thereof” (Polaris Pharmaceuticals, Inc., priority 2016, dated 2019)

Legend:
Format in all cases: cell-based
PC3 = experiment: Cancer cell panel, cell viability (resazurin): Prostate, PC3; details: 72 hours, labelled drug combined with Example 3
Experimental: (§1) Cells were plated in 96-well plates and treated for 72 hours with a serially diluted CK2 inhibitor or anti-cancer drug or their combination. The suspension cell lines were treated right after plating, while the adherent cells were allowed to attach overnight prior to the start of the treatment.
(§2) Cell viability was determined by adding resazurin to cell cultures and measuring fluorescence with a plate reader. Relative cell viability was calculated by dividing the cell viability signal from a test sample by that of a non-treated control. […] Bliss Independence and Highest Single Agent models were used to determine if there is synergy, additivity or antagonism between the CK2 inhibitor and an anti-cancer drug.

LnCap = experiment: Cancer cell panel, cell viability (resazurin): Prostate, LnCap; details: 72 hours, labelled drug combined with Example 3
Experimental: as §1, §2

SKOV-3 = experiment: Cancer cell panel, cell viability (resazurin): Ovarian, SKOV-3; details: SKOV-3 (Ovarian), 72 hours; labelled drug combined with Example 3
A2780 = experiment: Cancer cell panel, cell viability (resazurin): Ovarian, A2780; details: 72 hours, labelled drug combined with Example 3
Caov-3 = experiment: Cancer cell panel, cell viability (resazurin): Ovarian, Caov-3; details: Caov-3 (Ovarian), 72 hours; labelled drug combined with Example 3
Experimental: as §1, §2

Mia-Paca-2 = experiment: Cancer cell panel, cell viability (resazurin): Pancreatic, Mia-Paca-2; details: Mia-Paca-2 (Pancreatic), 72 hours; labelled drug combined with Example 3
Experimental: as §1, §2

Panc-1 = experiment: Cancer cell panel, cell viability (resazurin): Pancreatic, Panc-1; details: Panc-1 (Pancreatic), 72 hours; labelled drug combined with Example 3
Experimental: as §1, §2

BxPC3 = experiment: Cancer cell panel, cell viability (resazurin): Pancreatic, BxPC3; details: 72 hours, labelled drug combined with Example 3
HCT116 = experiment: Cancer cell panel, cell viability (resazurin): Colon, HCT116; details: 72 hours, labelled drug combined with Example 3
Colo205 = experiment: Cancer cell panel, cell viability (resazurin): Colon, Colo205; details: 72 hours, labelled drug combined with Example 3
Experimental: as §1, §2

LoVo = experiment: Cancer cell panel, cell viability (resazurin): Colon, LoVo; details: 72 hours, labelled drug combined with Example 3
DLD-1 = experiment: Cancer cell panel, cell viability (resazurin): Colon, DLD-1; details: DLD-1 (Colon), 72 hours; labelled drug combined with Example 3
H1299 = experiment: Cancer cell panel, cell viability (resazurin): NSCLC, H1299; details: 72 hours, labelled drug combined with Example 3
A549 = experiment: Cancer cell panel, cell viability (resazurin): NSCLC, A549; details: 72 hours, labelled drug combined with Example 3
Experimental: as §1, §2

H460 = experiment: Cancer cell panel, cell viability (resazurin): NSCLC, H460; details: 72 hours, labelled drug combined with Example 3
Experimental: as §1, §2

H1975 = experiment: Cancer cell panel, cell viability (resazurin): NSCLC, H1975; details: 72 hours, labelled drug combined with Example 3
H23 = experiment: Cancer cell panel, cell viability (resazurin): NSCLC, H23; details: 72 hours, labelled drug combined with Example 3
H2122 = experiment: Cancer cell panel, cell viability (resazurin): NSCLC, H2122; details: 72 hours, labelled drug combined with Example 3
SkBr-3 = experiment: Cancer cell panel, cell viability (resazurin): Breast, SkBr-3; details: SkBr-3 (Breast), 72 hours; labelled drug combined with Example 3
Experimental: as §1, §2

MDA-MB-453 = experiment: Cancer cell panel, cell viability (resazurin): Breast, MDA-MB-453; details: MDA-MB-453 (Breast), 72 hours; labelled drug combined with Example 3
MDA-MB-231 = experiment: Cancer cell panel, cell viability (resazurin): Breast, MDA-MB-231; details: MDA-MB-231 (Breast), 72 hours; labelled drug combined with Example 3
MDA-MB-157 = experiment: Cancer cell panel, cell viability (resazurin): Breast, MDA-MB-157; details: MDA-MB-157 (Breast), 72 hours; labelled drug combined with Example 3
BT-20 = experiment: Cancer cell panel, cell viability (resazurin): Breast, BT-20; details: BT-20 (Breast), 72 hours; labelled drug combined with Example 3
Experimental: as §1, §2

Nc1ccn([C@@H]2O[C@H](CO)[C@@H](O)C2(F)F)c(=O)n1 [Gemcitabine, gemcitabine]
synergy, additivity or antagonism of the combination of Example 3 with the anti-cancer drug (PC3): + (Additive relative to each agent alone (CI = 0.9-1 by Bliss Independence Model and <0.9 by Highest Single Agent Model)) | synergy, additivity or antagonism of the combination of Example 3 with the anti-cancer drug (LnCap): + (Additive relative to each agent alone (CI = 0.9-1 by Bliss Independence Model and <0.9 by Highest Single Agent Model)) | synergy, additivity or antagonism of the combination of Example 3 with the anti-cancer drug (SKOV-3): + + (Slight synergy relative to each agent alone (CI = 0.75-0.9 by Bliss Independence Model)) | synergy, additivity or antagonism of the combination of Example 3 with the anti-cancer drug (A2780): + + + (Synergy relative to each agent alone (CI = 0.4-0.74 by Bliss Independence Model)) | synergy, additivity or antagonism of the combination of Example 3 with the anti-cancer drug (Caov-3): + (Additive relative to each agent alone (CI = 0.9-1 by Bliss Independence Model and <0.9 by Highest Single Agent Model)) | synergy, additivity or antagonism of the combination of Example 3 with the anti-cancer drug (Mia-Paca-2): + + (Slight synergy relative to each agent alone (CI = 0.75-0.9 by Bliss Independence Model)) | synergy, additivity or antagonism of the combination of Example 3 with the anti-cancer drug (Panc-1): + (Additive relative to each agent alone (CI = 0.9-1 by Bliss Independence Model and <0.9 by Highest Single Agent Model)) | synergy, additivity or antagonism of the combination of Example 3 with the anti-cancer drug (BxPC3): + + + (Synergy relative to each agent alone (CI = 0.4-0.74 by Bliss Independence Model)) | synergy, additivity or antagonism of the combination of Example 3 with the anti-cancer drug (HCT116): + (Additive relative to each agent alone (CI = 0.9-1 by Bliss Independence Model and <0.9 by Highest Single Agent Model)) | synergy, additivity or antagonism of the combination of Example 3 with the anti-cancer drug (Colo205): + (Additive relative to each agent alone (CI = 0.9-1 by Bliss Independence Model and <0.9 by Highest Single Agent Model)) | synergy, additivity or antagonism of the combination of Example 3 with the anti-cancer drug (LoVo): + (Additive relative to each agent alone (CI = 0.9-1 by Bliss Independence Model and <0.9 by Highest Single Agent Model)) | synergy, additivity or antagonism of the combination of Example 3 with the anti-cancer drug (DLD-1): + (Additive relative to each agent alone (CI = 0.9-1 by Bliss Independence Model and <0.9 by Highest Single Agent Model)) | synergy, additivity or antagonism of the combination of Example 3 with the anti-cancer drug (H1299): + (Additive relative to each agent alone (CI = 0.9-1 by Bliss Independence Model and <0.9 by Highest Single Agent Model)) | synergy, additivity or antagonism of the combination of Example 3 with the anti-cancer drug (A549): + + + + (Strong synergy relative to each agent alone (CI < 0.4 by Bliss Independence Model)) | synergy, additivity or antagonism of the combination of Example 3 with the anti-cancer drug (H460): + + (Slight synergy relative to each agent alone (CI = 0.75-0.9 by Bliss Independence Model)) | synergy, additivity or antagonism of the combination of Example 3 with the anti-cancer drug (H1975): + (Additive relative to each agent alone (CI = 0.9-1 by Bliss Independence Model and <0.9 by Highest Single Agent Model)) | synergy, additivity or antagonism of the combination of Example 3 with the anti-cancer drug (H23): + (Additive relative to each agent alone (CI = 0.9-1 by Bliss Independence Model and <0.9 by Highest Single Agent Model)) | synergy, additivity or antagonism of the combination of Example 3 with the anti-cancer drug (H2122): + + (Slight synergy relative to each agent alone (CI = 0.75-0.9 by Bliss Independence Model)) | synergy, additivity or antagonism of the combination of Example 3 with the anti-cancer drug (SkBr-3): + (Additive relative to each agent alone (CI = 0.9-1 by Bliss Independence Model and <0.9 by Highest Single Agent Model)) | synergy, additivity or antagonism of the combination of Example 3 with the anti-cancer drug (MDA-MB-453): + + (Slight synergy relative to each agent alone (CI = 0.75-0.9 by Bliss Independence Model)) | synergy, additivity or antagonism of the combination of Example 3 with the anti-cancer drug (MDA-MB-231): + + (Slight synergy relative to each agent alone (CI = 0.75-0.9 by Bliss Independence Model)) | synergy, additivity or antagonism of the combination of Example 3 with the anti-cancer drug (MDA-MB-157): + + (Slight synergy relative to each agent alone (CI = 0.75-0.9 by Bliss Independence Model)) | synergy, additivity or antagonism of the combination of Example 3 with the anti-cancer drug (BT-20): + (Additive relative to each agent alone (CI = 0.9-1 by Bliss Independence Model and <0.9 by Highest Single Agent Model))
